Our source for the IC50 and inhibition values is paper PMC11199504, “New hemisynthetic derivatives of sphaeropsidin phytotoxins triggering severe endoplasmic reticulum swelling in cancer cells” (Scientific Reports, 2024).

SMILES strings stand for the structures. Read-outs that look alike come from different tables or passages of the source.

Test [1] has as its system U373. More on the design: method as in doi:10.1016/j.phytol.2012.08.011. Conditions: 72 h treatment; read-out: IC50 determined by MTT assays, U373; cited from earlier work. A general note: Tetrazolium dyes change colour on reduction, which living cells bring about.
Test [2] deals with A549, SKMEL-28, U373, MCF7, Hs683, B16F10. More on the design: method as in doi:10.1016/j.phytol.2012.08.011. Conditions: mean over cell lines (MCF7 not available); read-out: IC50 determined by MTT assays, Mean; cited from earlier work.
The subject of test [3] is SKMEL-28. More on the design: method as in doi:10.1016/j.phytol.2012.08.011. Conditions: 72 h treatment; read-out: IC50 determined by MTT assays, SKMEL-28; cited from earlier work.
Test [4] relates to A549. Also on record: method as in doi:10.1016/j.phytol.2012.08.011. Conditions: 72 h treatment; read-out: IC50 determined by MTT assays, A549; cited from earlier work.
In test [5] the test system is B16F10. Also on record: method as in doi:10.1016/j.phytol.2012.08.011. Conditions: 72 h treatment; read-out: IC50 determined by MTT assays, B16F10; cited from earlier work.
Test [6] deals with Hs683. Also on record: method as in doi:10.1016/j.phytol.2012.08.011. Conditions: 72 h treatment; read-out: IC50 determined by MTT assays, Hs683; cited from earlier work.
The subject of the next test is KB-C-1. Put plainly: MTT assay, KB-C-1 (ABCB1-overexpressing). The test is classed as cell-based. Conditions: KBC-1; 72 h treatment; ± standard deviation; drug-resistant model; read-out: IC50 determined by MTT assays, KB-C-1. From the text:
(§1) Cancer cell lines were obtained from either the European Collection of Cell Cultures (ECACC; Salisbury, UK) or the American Type Culture Collection (ATCC; Manassas, VA). The two glioma cell lines were the U373 (ECACC code 08061901) and Hs683 (ATCC HTB-138) cell lines. The carcinoma cell lines were the A549 non-small cell carcinoma cell line (ATCC code CCL 185) and the MCF-7 mammary breast carcinoma cell line (ATCC code HTB-22). The melanoma cell lines were the mouse B16F10 cells (ATCC code CRL-6475) and the human SKMEL-28 cells (ATCC code HTB-72). The ovarian cancer cell line A2780 and its cisplatin-resistant subline A2780cis were obtained from Sigma-Aldrich (St. Louis, MO, USA). Colon cancer HCT116 cells were obtained from ATCC (CCL-247) and the oxaliplatin-resistant subline HCT116/OxR established in the W. Berger lab[59]. The HeLa cell derivative KB-3-1 and the colchicine-selected, highly ABCB1-overexpressing subline KB-C-1 were generously donated by Dr. D. W. Shen, Bethesda, MD. RKOp53wt colon cancer cells together with the RKOp53KO (homozygous knock-out) subline[60] were generously provided by Dr. Vogelstein from John Hopkins University, Baltimore. The correct origin of all cell models was confirmed by STR during performance of the experiments. All cell lines were cultured in RPMI1640 culture medium supplemented with 10% heat-inactivated fetal bovine serum, 2% L-glutamine (0.6 mg/mL), 2% penicillin/streptomycin (200 IU/mL and 200 μg/mL) and 0.1 mg/mL gentamicin.
(§2) The MTT (3-(4,5-dimethylthiazol-2-yl)-2,5-diphenyl tetrazolium bromide) colorimetric assay has been conducted as described previously. Briefly, cells were seeded 24 h before their treatment with each compound for a period of 72 h. The concentrations tested ranged from 10 nM to 100 µM. Each assay was conducted in sextuplicates. The number of independent experiments is mentioned in the legend of the tables.
(§3) SI Table 1: IC50 determined by MTT assays. Mean concentration (± standard deviation) in µM required to
(§4) reduce the viability of cells by 50% after a 72 h treatment relative to the control.
(§5) Parental sensitive models Drug-resistant models

The subject of test [7] is Hs683. As to the kind of experiment: MTT colorimetric assay, Hs683. Conditions: Homo sapiens, Hs 683; 72 h treatment; mean ± SEM; sensitive to apoptosis; read-out: IC50 determined by MTT assays, Hs683. The test is classed as cell-based.
From the text: as §1, §2

Test [8] relates to A549, SKMEL-28, U373, MCF7, Hs683, B16F10. Put plainly: MTT colorimetric assay, mean of the six cell lines. The test is classed as cell-based. Conditions: 72 h, mean over the six cell lines; 72 h treatment; read-out: IC50 determined by MTT assays, Mean.
From the text: as §1, §2

For test [9], the system named is U373. As to the kind of experiment: MTT colorimetric assay, U373. Conditions: Homo sapiens, U373 MG; 72 h treatment; mean ± SEM; resistant to apoptosis; read-out: IC50 determined by MTT assays, U373. The test is classed as cell-based.
From the text: as §1, §2

For a further test, the system named is RKO/P53wt. Put plainly: MTT assay, RKO/P53wt (parental sensitive). It is filed as cell-based. Conditions: 72 h treatment; ± standard deviation; parental sensitive model; read-out: IC50 determined by MTT assays, RKO/P53wt.
From the text: as §1, §2, §3, §4, §5

The test system of test [10] is Parental sensitive models. As to the kind of experiment: MTT assay, mean of parental sensitive models. The test is classed as cell-based. Conditions: 72 h treatment; read-out: IC50 determined by MTT assays, mean of parental sensitive models.
From the text: as §1, §2, §3, §4, §5

For a further test, the system named is Drug-resistant models. Put plainly: MTT assay, mean of drug-resistant models. The test is classed as cell-based. Conditions: 72 h treatment; read-out: IC50 determined by MTT assays, mean of drug-resistant models.
From the text: as §1, §2, §3, §4, §5

Another test has as its system KB-3-1. As to the kind of experiment: MTT assay, KB-3-1 (parental sensitive). It is filed as cell-based. Conditions: Homo sapiens, KB 3-1; 72 h treatment; ± standard deviation; parental sensitive model; read-out: IC50 determined by MTT assays, KB-3-1.
From the text: as §1, §2, §3, §4, §5

Test [11] concerns A549. Put plainly: MTT colorimetric assay, A549. It is filed as cell-based. Conditions: Homo sapiens, 72 h treatment, mean ± SEM of six replicates of one experiment (1: 7, 13: 6 independent experiments), resistant to apoptosis, read-out: IC50 determined by MTT assays, A549.
From the text: as §1, §2

The test system of the next test is MCF7. As to the kind of experiment: MTT colorimetric assay, MCF7. It is filed as cell-based. Conditions: Homo sapiens, 72 h treatment, mean ± SEM, sensitive to apoptosis, read-out: IC50 determined by MTT assays, MCF7.
From the text: as §1, §2

A further test has as its system A2780. As to the kind of experiment: MTT assay, A2780 (parental sensitive). The test is classed as cell-based. Conditions: Homo sapiens, A2780; 72 h treatment; ± standard deviation; parental sensitive model; read-out: IC50 determined by MTT assays, A2780.
From the text: as §1, §2, §3, §4, §5

The next test concerns Hct116. Put plainly: MTT assay, Hct116 (parental sensitive). The test is classed as cell-based. Conditions: Homo sapiens, HCT-116; 72 h treatment; ± standard deviation; parental sensitive model; read-out: IC50 determined by MTT assays, Hct116.
From the text: as §1, §2, §3, §4, §5

Test [12] has as its system SKMEL-28. As to the kind of experiment: MTT colorimetric assay, SKMEL-28. It is filed as cell-based. Conditions: Homo sapiens, SK-MEL-28; 72 h treatment; mean ± SEM; resistant to apoptosis; read-out: IC50 determined by MTT assays, SKMEL-28.
From the text: as §1, §2

The next test relates to A2780R. As to the kind of experiment: MTT assay, A2780R (cisplatin-resistant). The test is classed as cell-based. Conditions: 72 h treatment; ± standard deviation; drug-resistant model; read-out: IC50 determined by MTT assays, A2780R.
From the text: as §1, §2, §3, §4, §5

The subject of test [13] is B16F10. As to the kind of experiment: MTT colorimetric assay, B16F10. The test is classed as cell-based. Conditions: Mus musculus, B16-F10; 72 h treatment; mean ± SEM; sensitive to apoptosis; read-out: IC50 determined by MTT assays, B16F10.
From the text: as §1, §2

In the next test the test system is RKO/p53ko. As to the kind of experiment: MTT assay, RKO/p53ko. The test is classed as cell-based. Conditions: 72 h treatment; ± standard deviation; drug-resistant model; read-out: IC50 determined by MTT assays, RKO/p53ko.
From the text: as §1, §2, §3, §4, §5

Another test has as its system Hct116/OxR. As to the kind of experiment: MTT assay, Hct116/OxR (oxaliplatin-resistant). Conditions: Homo sapiens, HCT-116; 72 h treatment; ± standard deviation; drug-resistant model; read-out: IC50 determined by MTT assays, Hct116/OxR. It is filed as cell-based.
From the text: as §1, §2, §3, §4, §5

Another test addresses T1, human TopIIa (Homo sapiens, UniProt P11388).
T1 construct: purchased TopoGen (Port Orange, FL, USA)
Put plainly: Cell-free decatenation assay. The test is classed as biochemical. Conditions: at 500 µM, read-out: TopoIIa inhibition. As for the experimental part:
The topoisomerase (Top) activity assay kit, including kinetoplast DNA (kDNA and recombinant human TopIIa enzyme, was obtained from TopoGen (Port Orange, FL, USA), agarose from PeqLab (Erlangen, Germany), 50 × TAE buffer from Roth (Karlsruhe, Germany) and ethidium bromide solution (10 mg/mL) from Sigma-Aldrich (Taufkirchen, Germany). Decatenation assays were performed as described previously[62] with slight modifications according to the manufacturer’s protocol. 100 µM of the recently described dual topoisomerase poison P8-D6 served as a positive control, and 5% DMSO as a solvent control. Briefly, the compounds were dissolved in DMSO and diluted to 20× the concentration to be tested. 1 µL of the resulting stock solutions were mixed with 18 µL of a buffer containing 200 ng kDNA and 1 mM ATP. Subsequently, 1 µL of a 1u/µL dilution of TopIIa enzyme was added and incubated at 37 °C for 30 min. Afterwards, the reaction was stopped by addition of Stop buffer, and electrophoresis was carried out on a 1% agarose gel in TAE buffer. The gel was stained with 0.5 µg/mL ethidium bromide, washed with water, and fluorescence images were captured with the LAS4000 system (Fujifilm, Duesseldorf, Germany). All steps were carried out on ice.

T1 sequence (P11388 whole entry): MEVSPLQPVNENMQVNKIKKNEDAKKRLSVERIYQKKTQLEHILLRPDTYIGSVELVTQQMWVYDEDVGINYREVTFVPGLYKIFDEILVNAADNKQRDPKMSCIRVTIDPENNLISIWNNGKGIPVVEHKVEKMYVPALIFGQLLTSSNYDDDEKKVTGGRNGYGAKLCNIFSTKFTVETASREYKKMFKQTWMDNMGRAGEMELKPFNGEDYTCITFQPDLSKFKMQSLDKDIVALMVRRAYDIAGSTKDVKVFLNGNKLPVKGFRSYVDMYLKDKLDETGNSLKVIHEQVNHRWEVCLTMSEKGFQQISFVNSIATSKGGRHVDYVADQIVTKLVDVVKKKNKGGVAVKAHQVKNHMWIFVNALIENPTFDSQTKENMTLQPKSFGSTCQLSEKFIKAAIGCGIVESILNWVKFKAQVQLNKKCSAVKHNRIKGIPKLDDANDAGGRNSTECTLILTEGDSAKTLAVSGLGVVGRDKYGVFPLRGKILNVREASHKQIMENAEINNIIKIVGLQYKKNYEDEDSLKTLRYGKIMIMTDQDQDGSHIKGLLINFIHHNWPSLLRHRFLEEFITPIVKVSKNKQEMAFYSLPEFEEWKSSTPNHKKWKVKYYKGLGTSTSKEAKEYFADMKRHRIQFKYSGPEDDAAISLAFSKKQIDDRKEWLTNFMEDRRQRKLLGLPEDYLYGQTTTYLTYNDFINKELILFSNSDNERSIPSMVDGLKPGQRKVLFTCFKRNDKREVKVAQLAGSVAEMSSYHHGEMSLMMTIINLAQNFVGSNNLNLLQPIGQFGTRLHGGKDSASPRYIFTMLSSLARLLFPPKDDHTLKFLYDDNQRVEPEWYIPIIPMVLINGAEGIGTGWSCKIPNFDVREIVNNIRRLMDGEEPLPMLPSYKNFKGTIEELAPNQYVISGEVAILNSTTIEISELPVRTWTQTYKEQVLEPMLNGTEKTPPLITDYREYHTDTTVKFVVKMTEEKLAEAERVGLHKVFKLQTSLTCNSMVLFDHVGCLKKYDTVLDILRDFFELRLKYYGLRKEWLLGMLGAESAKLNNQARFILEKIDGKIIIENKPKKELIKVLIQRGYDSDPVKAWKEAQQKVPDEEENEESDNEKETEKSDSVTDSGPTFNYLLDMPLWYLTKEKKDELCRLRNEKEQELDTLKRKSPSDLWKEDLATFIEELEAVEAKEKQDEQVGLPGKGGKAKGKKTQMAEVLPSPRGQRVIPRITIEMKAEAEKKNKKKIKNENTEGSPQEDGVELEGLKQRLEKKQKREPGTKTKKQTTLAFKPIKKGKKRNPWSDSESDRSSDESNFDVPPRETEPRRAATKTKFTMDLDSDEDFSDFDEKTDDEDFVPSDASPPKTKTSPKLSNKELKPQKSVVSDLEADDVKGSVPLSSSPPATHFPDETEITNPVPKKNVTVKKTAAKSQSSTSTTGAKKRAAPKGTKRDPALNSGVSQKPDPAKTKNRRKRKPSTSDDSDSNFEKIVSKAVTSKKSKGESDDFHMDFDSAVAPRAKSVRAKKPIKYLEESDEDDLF

`C=CC1(C)C=C2C(=O)C3(OC(C)=O)OC(=O)C4(CCCC(C)(C)C34)C2(O)CC1` (stereo not drawn) [Compound 2]: the IC50 was 0.95 ± 0.02 µM with U373 [1]; 2.25 ± 0.48 µM in [2]; 2.68 ± 0.04 µM in the test with SKMEL-28 [3]; 2.29 ± 0.13 µM in the test on A549 [4]; 1.56 ± 0.16 µM in the test on B16F10 [5]; 3.76 ± 0.04 µM with Hs683 [6].
In general, inhibition refers to the drop in the measured response relative to a control, in per cent. Regarding `C=C[C@]1(C)C=C2[C@@H](O)[C@@]3(O)OC(=O)[C@@]4(CCCC(C)(C)[C@H]34)[C@@]2(O)CC1` [Compound 15, sphaeropsidin B, reference compound], the IC50 is more than 100 µM with KB-C-1; 43.1 ± 1.07 µM in the test on Hs683 [7]; 51.9 ± 7.19 µM in test [8]; 37.8 ± 1.5 µM with U373 [9]; more than 100 µM with RKO/P53wt; more than 100 µM in [10]. Further, the IC50 was more than 100 µM in the test on Drug-resistant models; more than 100 µM in the test on KB-3-1; 44.8 ± 0.54 µM in the test on A549 [11]; 84.5 ± 8.29 µM in the test on MCF7; more than 100 µM with A2780; more than 100 µM in the test on Hct116. Also, the IC50 with SKMEL-28 [12] was 59.3 ± 4.51 µM; in the test on A2780R, more than 100 µM; in the test on B16F10 [13] it was 41.7 ± 1.49 µM; in the test with RKO/p53ko it was more than 100 µM; with Hct116/OxR, more than 100 µM. Besides, the inhibition at 500 µM at human TopIIa was approximately 50%.
